# Results from patent publication US12485110B2, “Use of ergothioneine for extending lifespan or improving healthspan” (NANJING NUTRABUILDING BIO-TECH CO., LTD., priority 2022, dated 2025).
# Experiments:
# C. elegans [1] = test: Acute toxicity assay; assay type: in vivo
# Protocol: Making culturing plates with ergothioneine: C. elegans is usually grown in the laboratory using E. coli as a food source. Nematode Growth Medium (NGM) plates have been prepared by aseptically pouring NGM agar into petri plates. Ergothioneine was dissolved in water to make a working solution of 0.5 M and then mixed with E. coli liquid culture before seeding on NGM agar plates. The seeding spots were dried slowly, allowing ergothioneine to diffuse into the food bacteria and the agar for at least 24 hours before worms are introduced. The indicated ergothioneine dosages (0, 640 nM, 3.2 μM, 16 μM, 80 μM, 400 μM, 2 mM, and 10 mM) are based on the total volume of the plates.
# The acute toxicity assay tests toxicity in adult worms by simulating the actual conditions of the lifespan assay. […] Second, over time worm deaths are scored to rule out doses that will likely have a negative impact on lifespan despite lacking immediate toxicity. […] Adult worms were monitored in the days immediately following exposure for early lethality or any other obvious defects.
# Worms were treated with either vehicle control or ergothioneine at doses spanning a range from […] to 10 mM on media identical to what would be used in the lifespan experiment. […] Worms were examined for immediate toxic effects and then scored intermittently for survival until the start of lifespan experiment in the next step (see example 2 below). […]
# C. elegans [2] = test: Movement and healthspan analysis (worm activity, morphology, circularity); assay type: in vivo
# Excerpt: Worm movement was tracked from the images acquired by the ALM during the lifespan assay. Worm size and movement features were extracted and analyzed using custom software.
# To measure healthspan, active worms were identified using the ALM scanner images from the lifespan assay (see Example 2). The worms' spatial location on the plate and their morphology were quantified throughout their lifespan to assess healthspan.
# Worm Activity serves as a proxy for animal health. Changes in spatial distribution of the worms between time points is used to derive aggregate movement for the population over time. Worm Activity is described by two complementary measurements of aggregate movement, Centroid Distance and Spatial Distribution: • Centroid Distance calculates a geometric center for each individual worm, and then measures the minimum collective distance that a group of worms moved between time points. It achieves measurement of the changes in spatial distribution between time-points. • Spatial Distribution uses changes in worm contours between time points to measure the changes in the spatial distribution of the worms' bodies. The normalized distribution of these distances in the population provides a measure of how much the group of worms altered their positions and posture on the plate between two time-points.
# For both of these Activity metrics, a plot with higher numbers indicates good health, and all measures are normalized to fall between 0 and 1.
# Worm morphology is measured from the worm contours detected in the images. In the process of aging, worms become shorter and stouter over time and their shape is an indicator of their overall health and biological age. The Length is calculated from the central spline fitted to the worm contour and Width is measured from each worm's widest point. The worms' posture also changes with age as they lose the ability to maintain an elongated position. Average Circularity measures how close the shape and posture come to being enclosed by a circle.
# Each of these measures are obtained by averaging data for all active worms detected on a plate, then averaging across different replicate plates of the same condition. All measurements are based on worms that are still alive and moving at the time of quantification. All measures start when worms are placed on the scanner at day 3 of adulthood.
# Average Circularity. The Average Circularity Assay indicates worm heath by describing how closely the shape and posture of the worms is enclosed within a circle. Healthy, active worms maintain an elongated, albeit sinusoidal posture. As unhealthy and aged worms lose muscle function, they increasingly adopt a curled, bunched, or folded state in addition to a stout and wrinkled morphology.
smiles,measurement,setting,value
"C[N+](C)(C)[C@@H](Cc1c[nH]c(=S)[nH]1)C(=O)[O-] [Ergo, Ergothioneine]",Early lethality (FIG. 3),"C. elegans [1]; 2 mM, upper end of the remaining doses",did not cause early lethality
same,Early lethality (FIG. 3),"C. elegans [1]; 10 mM, day 10 post treatment, L4 stage worms, 25° C.",showed an early lethality
same,"Aggregate movement (Centroid Distance and Spatial Distribution, FIGS. 5A-5B)","C. elegans [2]; 5 mM, over the duration of lifespan",more vigorous movement
same,Average circularity (FIG. 7),"C. elegans [2]; ergothioneine-treated worms vs control, peaking at around 16 days",only slight differences
same,"Worm morphology (length, width, area, FIGS. 6A-6C)","C. elegans [2]; up to the 5 mM dosage, over the lifespan",did not produce detectable changes in morphology
